In patent US6075006A, “Soluble tachykinin antagonists, the preparation and use thereof” (Centro Interuniversitario di Ricera Sui Peptidi …, priority 1996, dated 2000) one finds Solubility data, which are given here for four molecules.

≈ marks a conversion by molar mass, not a printed value. Where two headings read alike, the source gives them in different places. Bridge positions count the residues as written; N and C are the ends. Square brackets hold non-standard residues; d marks the D form. Peptide text beside a SMILES is read from it. * marks the point of attachment. βGal = OC[C@H]1O[C@@H](*)[C@H](O)[C@@H](O)[C@H]1O; X1 = OC[C@H]1O[C@@H](N*)[C@H](O)[C@@H](O)[C@H]1O; Dap = NC[C@H](N)C(=O)O

The nature of one data set: Water solubility. It counts as physicochemical. The note with it: table of example 2.
For data set [1] the following is noted: water solubility of known insoluble antagonists, stated in the description; cited from earlier work.

As to `CC(C)C[C@@H]1NC(=O)[C@@H]2CNC(=O)C[C@H](NC(=O)[C@H](CS[C@@H]3O[C@H](CO)[C@H](O)[C@H](O)[C@H]3O)NC1=O)C(=O)N[C@@H](Cc1c[nH]c3ccccc13)C(=O)N[C@@H](Cc1ccccc1)C(=O)N2` [Example 1, cyclo[Cys^1 (β-D-Gal)-Asp^2 -Trp^3 -Phe^4 -Dap^5 -Leu^6]cyclo(2β-5β)] (cyclo(C(βGal)DWF[Dap]L); lactam 2-5), the Solubility (commonly the concentration that dissolves in the medium under given conditions) in the data set “Water solubility” came out at 1.800 µg/mL (≈ 2.01 µM).
With `CSCC[C@@H]1NC(=O)[C@H](CC(C)C)NC(=O)[C@@H]2CNC(=O)C[C@H](NC1=O)C(=O)N[C@@H](Cc1c[nH]c3ccccc13)C(=O)N[C@@H](Cc1ccccc1)C(=O)N2` [MEN 10627] (cyclo(DWF[Dap]LM); lactam 1-4), the Solubility (in the data set “Water solubility”; in data set [1]) was 15 µg/mL (≈ 19.7 µM) in each case.
Take `CC(C)C[C@@H]1NC(=O)[C@@H]2CNC(=O)C[C@H](NC(=O)[C@H](CC(=O)N[C@@H]3O[C@H](CO)[C@H](O)[C@H](O)[C@H]3O)NC1=O)C(=O)N[C@@H](Cc1c[nH]c3ccccc13)C(=O)N[C@@H](Cc1ccccc1)C(=O)N2` [Comparative example 2, cyclo[Asn^1 (β-D-Gal)-Asp^2 -Trp^3 -Phe^4 -Dap^5 -Leu^6]cyclo(2β-5β)] (cyclo(D(X1)DWF[Dap]L); lactam 2-5): the Solubility in “Water solubility” turned out to be 1.980 µg/mL (≈ 2.19 µM).
In the data set “Water solubility”, `CC(C)C[C@@H]1NC(=O)[C@@H]2CNC(=O)C[C@H](NC(=O)[C@H](CO[C@@H]3O[C@H](CO)[C@H](O)[C@H](O)[C@H]3O)NC1=O)C(=O)N[C@@H](Cc1c[nH]c3ccccc13)C(=O)N[C@@H](Cc1ccccc1)C(=O)N2` [Comparative example 1, cyclo[Ser^1 (β-D-Gal)-Asp^2 -Trp^3 -Phe^4 -Dap^5 -Leu^6]cyclo(2β-5β)] (cyclo(DWF[Dap]LS(βGal)); lactam 1-4) returned a Solubility of 2.020 µg/mL (≈ 2.3 µM).
